Data published in the supplement of paper PMC10307832.

Assays:
Assay in all cases: relative viability (nuclei count vs DMSO), 5 days (fraction); higher = more cells survive
[1] = compound: CN(c1ncccc1CNc1nc(Nc2ccc3c(c2)CC(=O)N3)ncc1C(F)(F)F)S(C)(=O)=O + CS(=O)(=O)N1CCN(Cc2cc3nc(-c4cccc5[nH]ncc45)nc(N4CCOCC4)c3s2)CC1 [Pictilisib] (partner 1 µM)
Outline: (§1)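 Cells from lung cancer lines were seeded into 1536-well plates and, one day later, dosed by pin tool. Treatments were either a single drug or a fixed dose of an anchor drug with five library-drug doses (not always all listed) in √10 steps. After 5 days, nuclei were stained in a one-step fixation (final 0.05% Triton X-100, 1% formaldehyde, 1 ug/ml Hoechst) and counted on 4× images, and relative viability is the treated-to-vehicle nuclei ratio, as the median of duplicate plates.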

[2] = compound: CN(c1ncccc1CNc1nc(Nc2ccc3c(c2)CC(=O)N3)ncc1C(F)(F)F)S(C)(=O)=O + Nc1ncn([C@H]2C[C@H](O)[C@@H](CO)O2)c(=O)n1 [Decitabine] (partner 2 µM)
Outline: as §1

[3] = compound: CN(c1ncccc1CNc1nc(Nc2ccc3c(c2)CC(=O)N3)ncc1C(F)(F)F)S(C)(=O)=O + C[C@@H](Oc1cc(-c2cnn(C3CCNCC3)c2)cnc1N)c1c(Cl)ccc(F)c1Cl [Crizotinib] (partner 1 µM)
Outline: as §1

[4] = compound: CN(c1ncccc1CNc1nc(Nc2ccc3c(c2)CC(=O)N3)ncc1C(F)(F)F)S(C)(=O)=O + Cc1nc(NC(=O)N2CCC[C@H]2C(N)=O)sc1-c1ccnc(C(C)(C)C(F)(F)F)c1 [Alpelisib] (partner 2 µM)
Outline: as §1

[5] = compound: CN(c1ncccc1CNc1nc(Nc2ccc3c(c2)CC(=O)N3)ncc1C(F)(F)F)S(C)(=O)=O + N=C(N)NC(=N)NCCc1ccccc1 [Phenformin] (partner 250 µM)
Outline: as §1

[6] = compound: CN(c1ncccc1CNc1nc(Nc2ccc3c(c2)CC(=O)N3)ncc1C(F)(F)F)S(C)(=O)=O + CS(=O)(=O)CCNCc1ccc(-c2ccc3ncnc(Nc4ccc(OCc5cccc(F)c5)c(Cl)c4)c3c2)o1 [Lapatinib] (partner 2 µM)
Outline: as §1

[7] = compound: CN(c1ncccc1CNc1nc(Nc2ccc3c(c2)CC(=O)N3)ncc1C(F)(F)F)S(C)(=O)=O + O=C(c1cc(Cc2n[nH]c(=O)c3ccccc23)ccc1F)N1CCN(C(=O)C2CC2)CC1 [Olaparib] (partner 8 µM)
Outline: as §1

[8] = compound: CN(c1ncccc1CNc1nc(Nc2ccc3c(c2)CC(=O)N3)ncc1C(F)(F)F)S(C)(=O)=O + CC1(C)CCC(c2ccc(Cl)cc2)=C(CN2CCN(c3ccc(C(=O)NS(=O)(=O)c4ccc(N[C@H](CCN5CCOCC5)CSc5ccccc5)c(S(=O)(=O)C(F)(F)F)c4)cc3)CC2)C1 [Navitoclax] (partner 0.5 µM)
Outline: as §1

[9] = compound: CN(c1ncccc1CNc1nc(Nc2ccc3c(c2)CC(=O)N3)ncc1C(F)(F)F)S(C)(=O)=O + COc1cc2c(Oc3ccc(NC(=O)C4(C(=O)Nc5ccc(F)cc5)CC4)cc3F)ccnc2cc1OCCCN1CCOCC1 [Foretinib] (partner 0.25 µM)
Outline: as §1

[10] = compound: CN(c1ncccc1CNc1nc(Nc2ccc3c(c2)CC(=O)N3)ncc1C(F)(F)F)S(C)(=O)=O + C[C@]1(O)C[C@@H](c2nc(-c3ccc4ccc(-c5ccccc5)nc4c3)c3c(N)nccn32)C1 [Linsitinib] (partner 1 µM)
Outline: as §1

[11] = compound: CN(c1ncccc1CNc1nc(Nc2ccc3c(c2)CC(=O)N3)ncc1C(F)(F)F)S(C)(=O)=O
Outline: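 Lung cancer cell lines in 1536-well plates were exposed by pinning to five library-drug doses (not always all listed) √10 apart, following an overnight hold at 37 °C. MetaXpress counted Hoechst-stained nuclei from 4× images taken after 5 days without medium change. Viability is the median ratio of treated-well to vehicle-well nuclei across plates. Plates required control CV below 25% and at least one doubling.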

[12] = compound: CN(c1ncccc1CNc1nc(Nc2ccc3c(c2)CC(=O)N3)ncc1C(F)(F)F)S(C)(=O)=O + CC(C)C[C@H](NC(=O)[C@H](Cc1ccccc1)NC(=O)c1cnccn1)B(O)O [Bortezomib] (partner 0.002 µM)
Outline: as §1

A549
relative viability ([1]; first compound 0.01 µM): 0.474 | relative viability ([1]; first compound 0.03162 µM): 0.63 | relative viability ([1]; first compound 0.1 µM): 0.569 | relative viability ([1]; first compound 0.3162 µM): 0.452 | relative viability ([1]; first compound 1 µM): 0.409 | relative viability ([2]; first compound 0.01 µM): 0.271 | relative viability ([2]; first compound 0.03162 µM): 0.258 | relative viability ([2]; first compound 0.1 µM): 0.285 | relative viability ([2]; first compound 0.3162 µM): 0.257 | relative viability ([2]; first compound 1 µM): 0.257 | relative viability ([3]; first compound 0.01 µM): 0.762 | relative viability ([3]; first compound 0.03162 µM): 0.799 | relative viability ([3]; first compound 0.1 µM): 0.803 | relative viability ([3]; first compound 0.3162 µM): 0.797 | relative viability ([3]; first compound 1 µM): 0.526 | relative viability ([4]; first compound 0.01 µM): 0.754 | relative viability ([4]; first compound 0.03162 µM): 0.905 | relative viability ([4]; first compound 0.1 µM): 0.726 | relative viability ([4]; first compound 0.3162 µM): 0.906 | relative viability ([4]; first compound 1 µM): 0.712 | relative viability ([5]; first compound 0.01 µM): 0.189 | relative viability ([5]; first compound 0.03162 µM): 0.205 | relative viability ([5]; first compound 0.1 µM): 0.173 | relative viability ([5]; first compound 0.3162 µM): 0.133 | relative viability ([5]; first compound 1 µM): 0.152 | relative viability ([6]; first compound 0.01 µM): 1 | relative viability ([6]; first compound 0.03162 µM): 1.06 | relative viability ([6]; first compound 0.1 µM): 0.971 | relative viability ([6]; first compound 0.3162 µM): 0.928 | relative viability ([6]; first compound 1 µM): 0.915 | relative viability ([7]; first compound 0.01 µM): 0.29 | relative viability ([7]; first compound 0.03162 µM): 0.367 | relative viability ([7]; first compound 0.1 µM): 0.352 | relative viability ([7]; first compound 0.3162 µM): 0.464 | relative viability ([7]; first compound 1 µM): 0.373 | relative viability ([8]; first compound 0.01 µM): 1.19 | relative viability ([8]; first compound 0.03162 µM): 1.07 | relative viability ([8]; first compound 0.1 µM): 1.26 | relative viability ([8]; first compound 0.3162 µM): 1.13 | relative viability ([8]; first compound 1 µM): 1.1 | relative viability ([9]; first compound 0.01 µM): 0.995 | relative viability ([9]; first compound 0.03162 µM): 0.948 | relative viability ([9]; first compound 0.1 µM): 0.958 | relative viability ([9]; first compound 0.3162 µM): 0.945 | relative viability ([9]; first compound 1 µM): 0.933 | relative viability ([10]; first compound 0.01 µM): 0.526 | relative viability ([10]; first compound 0.03162 µM): 0.761 | relative viability ([10]; first compound 0.1 µM): 0.558 | relative viability ([10]; first compound 0.3162 µM): 0.606 | relative viability ([10]; first compound 1 µM): 0.694 | relative viability ([11]; 0.01 µM): 1.04 | relative viability ([11]; 0.03162 µM): 1.17 | relative viability ([11]; 0.1 µM): 0.922 | relative viability ([11]; 0.3162 µM): 0.95 | relative viability ([11]; 1 µM): 0.95

EBC-1
relative viability ([1]; first compound 0.01 µM): 0.365 | relative viability ([1]; first compound 0.03162 µM): 0.325 | relative viability ([1]; first compound 0.1 µM): 0.391 | relative viability ([1]; first compound 0.3162 µM): 0.36 | relative viability ([1]; first compound 1 µM): 0.305 | relative viability ([3]; first compound 0.01 µM): 0.204 | relative viability ([3]; first compound 0.03162 µM): 0.195 | relative viability ([3]; first compound 0.1 µM): 0.216 | relative viability ([3]; first compound 0.3162 µM): 0.2 | relative viability ([3]; first compound 1 µM): 0.186 | relative viability ([4]; first compound 0.01 µM): 0.869 | relative viability ([4]; first compound 0.03162 µM): 0.885 | relative viability ([4]; first compound 0.1 µM): 0.877 | relative viability ([4]; first compound 0.3162 µM): 0.948 | relative viability ([4]; first compound 1 µM): 0.654 | relative viability ([6]; first compound 0.01 µM): 0.217 | relative viability ([6]; first compound 0.03162 µM): 0.187 | relative viability ([6]; first compound 0.1 µM): 0.248 | relative viability ([6]; first compound 0.3162 µM): 0.204 | relative viability ([6]; first compound 1 µM): 0.2 | relative viability ([12]; first compound 0.01 µM): 0.596 | relative viability ([12]; first compound 0.03162 µM): 0.5 | relative viability ([12]; first compound 0.1 µM): 0.56 | relative viability ([12]; first compound 0.3162 µM): 0.585 | relative viability ([12]; first compound 1 µM): 0.499 | relative viability ([7]; first compound 0.01 µM): 0.71 | relative viability ([7]; first compound 0.03162 µM): 0.649 | relative viability ([7]; first compound 0.1 µM): 0.706 | relative viability ([7]; first compound 0.3162 µM): 0.634 | relative viability ([7]; first compound 1 µM): 0.58 | relative viability ([8]; first compound 0.01 µM): 0.461 | relative viability ([8]; first compound 0.03162 µM): 0.318 | relative viability ([8]; first compound 0.1 µM): 0.351 | relative viability ([8]; first compound 0.3162 µM): 0.385 | relative viability ([8]; first compound 1 µM): 0.302 | relative viability ([9]; first compound 0.01 µM): 0.107 | relative viability ([9]; first compound 0.03162 µM): 0.119 | relative viability ([9]; first compound 0.1 µM): 0.102 | relative viability ([9]; first compound 0.3162 µM): 0.105 | relative viability ([9]; first compound 1 µM): 0.0994 | relative viability ([10]; first compound 0.01 µM): 0.951 | relative viability ([10]; first compound 0.03162 µM): 1.01 | relative viability ([10]; first compound 0.1 µM): 0.889 | relative viability ([10]; first compound 0.3162 µM): 0.91 | relative viability ([10]; first compound 1 µM): 0.788 | relative viability ([11]; 0.01 µM): 1.03 | relative viability ([11]; 0.03162 µM): 1.09 | relative viability ([11]; 0.1 µM): 0.989 | relative viability ([11]; 0.3162 µM): 0.937 | relative viability ([11]; 1 µM): 0.776
